Source: patent US5306824A, “Biotinylated isocoumarins” (Georgia Tech Research Corporation, priority 1992, dated 1994)

Columns and labels:
PPE [1] = target: T1, PPE (Sus scrofa, UniProt P00772); experiment: Reactivation of inhibited PPE in buffer and with NH2OH; type: biochemical, porcine; conditions: for % of Enzyme Activity Reactivated, PPE +NH2OH: 0.4 M NH2OH, immediately after addition; for % of Enzyme Activity Reactivated, PPE in buffer: after removal of excess inhibitor, 25° C. for two days, 2880 min
Method: (§1) ^a Inhibition was performed at 0.1 M Hepes, 0.5 M NaCl, pH 7.5 buffer
(§2) 10% Me2 SO and 25° C. Reactivation was carried out in the
presence of 0.4 M of NH2 OH, and occurred immediately after the
(§3) ^b Enzyme activity was measured after removal of excess inhibitor by
(§4) centrifugation at 0° C. with centricon10 microconcentrator and
(§5) staying at 25° C. for two days.

trypsin [2] = target: T2, trypsin (Bos taurus, UniProt P00760); experiment: Reactivation of inhibited trypsin in buffer; type: biochemical; conditions: after removal of excess inhibitor, 25° C. for two days
T2 sequence (P00760 24-246): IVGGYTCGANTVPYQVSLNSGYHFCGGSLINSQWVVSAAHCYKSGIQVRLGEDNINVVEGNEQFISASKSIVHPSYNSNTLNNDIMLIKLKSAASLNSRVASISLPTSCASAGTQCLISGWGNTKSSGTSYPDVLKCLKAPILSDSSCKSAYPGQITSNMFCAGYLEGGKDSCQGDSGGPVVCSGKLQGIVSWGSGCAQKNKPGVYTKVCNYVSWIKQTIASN
Method: as §1, §2, §3, §4, §5

[3] = target: T3, human leukocyte elastase (HLE) (Homo sapiens, UniProt P08246); experiment: Inactivation of human leukocyte elastase by biotin-isocoumarins (incubation method); type: biochemical; conditions: inhibitor 1.6-210 μM; pH 7.5, 25° C.; read-out: kobs/[I] HLE
T3 sequence (P08246 30-267): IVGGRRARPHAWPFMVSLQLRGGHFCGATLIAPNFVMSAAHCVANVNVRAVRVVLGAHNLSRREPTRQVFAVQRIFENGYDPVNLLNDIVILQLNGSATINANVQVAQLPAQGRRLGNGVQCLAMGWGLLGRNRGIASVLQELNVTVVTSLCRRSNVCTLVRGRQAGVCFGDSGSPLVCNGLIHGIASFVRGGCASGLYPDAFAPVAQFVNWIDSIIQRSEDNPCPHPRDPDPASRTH
Method: (§6) Inactivation rates of serine proteases by substituted isocoumarins were measured by the incubation method. An aliquot of inhibitor (25 or 50 μl) in Me2 SO was added to a buffered enzyme solution (0.01-2.3 μM) to initiate the inactivation. Aliquots (50-100 μl) were withdrawn at various intervals and the residual enzymatic activity was measured. Me2 SO concentration in the reaction mixture was 8-12% (v/v). 0.1M Hepes, 0.5M NaCl, pH 7.5 buffer was utilized for the assays of chymotrypsin, cathepsin G (cat G), porcine pancreatic elastase (PPE), human leukocyte elastase (HLE) and rat granule serine proteases. 0.1M Hepes, 0.01M CaCl2, pH 7.5 buffer was utilized for the assays of trypsin and human recombinant (HR) granzyme A. The inhibitor concentrations are shown in the Tables I and II. Peptide nitroanilides with appropriate sequence were used as substrates for various serine proteases. All peptide 4-nitroanilide hydrolysis was measured at 410 nm (ε410 =8800M^-1 cm^-1; Erlanger et al., Arch. Biochem. Biophys. 95, pp 271-278 (1961), incorporated herein by reference). Peptide thioester hydrolysis rates were measured with assay mixtures containing 4,4'-dithiodipyridine (ε324 =19800M^-1 cm^-1; Grasetti & Murray, Arch. Biochem. Biophys. 119, pp. 41-49 (1967), incorporated herein by reference). First order inactivation rate constant (kobs) were obtained from plots of ln (vt /vo) vs time, and the correlation coefficients were greater than 0.98.
(§7) ^a Inhibition was measured in 0.1 M Hepes, 0.5 M NaCl (or 0.01 M
(§8) CaCl2), pH 7.5 buffer, 5-10% Me2 SO and at 25° C.
(§9) G. MeOSuc-Ala-Ala-Pro-Val-NA (0.24-0.47 mM) and SucAla-Ala-Ala-NA
(§10) (0.29-0.48 mM) were used as the substrate for HLE and PPE respectively.
^d Inhibitor concentrations were 1.6-210 μM.

cathepsin G (cat G) = target: T4, cathepsin G (cat G) (Homo sapiens, UniProt P08311); experiment: Inactivation of cathepsin G by biotin-isocoumarins (incubation method); type: biochemical; conditions: inhibitor 75-400 μM; pH 7.5, 25° C.; NI = no inhibition after 10 min of incubation; read-out: kobs/[I] Cat. G
T4 sequence (P08311 21-255): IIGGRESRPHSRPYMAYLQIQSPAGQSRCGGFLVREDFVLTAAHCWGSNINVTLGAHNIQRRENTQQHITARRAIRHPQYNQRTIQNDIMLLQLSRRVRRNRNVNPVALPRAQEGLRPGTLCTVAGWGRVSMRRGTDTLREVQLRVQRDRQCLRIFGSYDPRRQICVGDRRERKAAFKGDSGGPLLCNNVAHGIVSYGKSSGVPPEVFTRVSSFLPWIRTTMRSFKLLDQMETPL
Method: as §6, §7, §8
(§11) SucVal-Pro-NA (0.48 mM) was used as the substrate for chymotrypsin and ca
as §9
^c Inhibitor concentrations were 75-400 μM.
(§12) ^h No inhibition after 10 min of incubation of inhibitor and enzyme.
(§13) ^i Percentage of inhibition after 10 min of incubation of inhibitor

[4] = target: porcine pancreatic elastase (PPE) (Sus scrofa, UniProt P00772); experiment: Inactivation of porcine pancreatic elastase by biotin-isocoumarins (incubation method); type: biochemical; conditions: inhibitor 38-78 μM; pH 7.5, 25° C.; NI = no inhibition after 10 min of incubation; read-out: kobs/[I] PPE
Method: as §6, §7, §8, §9, §10
^e Inhibitor concentrations were 38-78 μM.
as §12

PPE [5] = target: T1, PPE; experiment: Effect of streptavidin and avidin on reactivation of inhibited PPE; type: biochemical, porcine; conditions: monitored for two days
Method: ^a Percentage of regained enzymatic activity was measured in 0.1 M
Hepes, 0.5 M NaCl, pH 7.5 buffer, 8% Me2 SO and at 25° C.
Excess inhibitor was removed from enzymeinhibitor mixture by
centrifugation twice with Amicon microconcentrator10. Then 3-4 units of
avidin or strepavidin was added and enzymatic activity was monitored for […]

chymotrypsin = chymotrypsin (Bos taurus, UniProt P00766); experiment: Inactivation of chymotrypsin by biotin-isocoumarins (incubation method); type: biochemical, bovine; conditions: pH 7.5, inhibitor 20-400 μM; 0.1 M Hepes, 0.5 M NaCl, pH 7.5, 5-10% Me2SO, 25° C.; two values given for some compounds; read-out: kobs/[I] Chymotrypsin
Method: as §6, §7, §8, §11
^b Inhibitor concentrations were 20-400 μM.

trypsin [6] = target: T2, trypsin; experiment: Inactivation of trypsin by biotin-isocoumarins (incubation method); type: biochemical; conditions: inhibitor 41-42 μM; 0.1 M Hepes, 0.01 M CaCl2, pH 7.5, 25° C.; read-out: kobs/[I] Trypsin
Method: as §6, §7, §8
(§14) ZGlu-Phe-Arg-NA (0.032 mM) was a substrate for trypsin. ZArg-SBzl (0.120
^f Inhibitor concentrations were 41-42 μM.

[7] = target: T5, human recombinant (HR) granzyme A (Homo sapiens, UniProt P12544); experiment: Inactivation of human recombinant granzyme A by biotin-isocoumarins (incubation method); type: biochemical; conditions: inhibitor 160-210 μM, pH 7.5, 25° C.
T5 sequence (P12544 29-262): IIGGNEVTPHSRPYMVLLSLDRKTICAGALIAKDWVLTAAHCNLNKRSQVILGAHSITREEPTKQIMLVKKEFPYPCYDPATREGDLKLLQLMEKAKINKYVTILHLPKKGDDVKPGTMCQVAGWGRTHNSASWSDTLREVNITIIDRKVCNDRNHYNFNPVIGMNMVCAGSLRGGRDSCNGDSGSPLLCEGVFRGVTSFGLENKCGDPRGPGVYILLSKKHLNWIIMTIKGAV
Method: as §6, §7, §8, §14
mM) was a substrate for human recombinant (HR) granzyme A.
^g Inhibitor concentrations were 160-210 μM.
as §12, §13

T1 sequence (P00772 27-266): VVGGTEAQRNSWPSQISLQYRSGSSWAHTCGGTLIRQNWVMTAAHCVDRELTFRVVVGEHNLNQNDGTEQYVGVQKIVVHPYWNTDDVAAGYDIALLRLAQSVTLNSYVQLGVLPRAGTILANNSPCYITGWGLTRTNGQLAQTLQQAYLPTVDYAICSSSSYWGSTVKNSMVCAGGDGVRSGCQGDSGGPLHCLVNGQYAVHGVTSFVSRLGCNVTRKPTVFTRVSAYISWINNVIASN
porcine pancreatic elastase (PPE), sequence (P00772 27-266): as above

| % of Enzyme Activity Reactivated, PPE +NH2OH (PPE [1]) [%] | % of Enzyme Activity Reactivated, PPE in buffer (PPE [1]) [%] | % of Enzyme Activity Reactivated, Trypsin in buffer (trypsin [2]) [%] | kinact/KI [3] [M⁻¹ s⁻¹] | kinact/KI (cathepsin G (cat G)) [M⁻¹ s⁻¹] | kinact/KI [4] [M⁻¹ s⁻¹] | % of Regained Enzyme Activity, PPE, +Avidin (PPE [5]; 3-4 units avidin, 2880 min) [%] | % of Regained Enzyme Activity, PPE, +Streptavidin (PPE [5]; 3-4 units streptavidin, 2880 min) [%] | % of Regained Enzyme Activity, PPE, Buffer (PPE [5]; pH 7.5, 8% Me2SO, 25° C.) [%] | kinact/KI (chymotrypsin) [M⁻¹ s⁻¹] | kinact/KI (trypsin [6]) [M⁻¹ s⁻¹] | Percentage of inhibition of HR Granzyme A after 10 min of incubation of inhibitor and enzyme [7] [%] | SMILES |
| --- | --- | --- | --- | --- | --- | --- | --- | --- | --- | --- | --- | --- |
| 90 | 37 | 33 | 76700 | 3.3 | 350 | 32 | 43 | 37 | 260 | 10.6 |  | CCCOc1oc(=O)c2cc(NC(=O)CCCCCNC(=O)CCCC[C@@H]3SC[C@@H]4NC(=O)N[C@@H]43)ccc2c1Cl [Compound 4, 7-(6-biotinylaminocaproyl)amino-4-chloro-3-propoxyisocoumarin] |
| 93 | 66 | 92 | 96000 | 59 | 520 |  |  |  | 260 | 16.6 | 26 | CCOc1oc(=O)c2cc(NC(=O)CCCCCNC(=O)CCCC[C@@H]3SC[C@@H]4NC(=O)N[C@@H]43)ccc2c1Cl [Compound 5, 7-(6-biotinylaminocaproyl)amino-4-chloro-3-ethoxyisocoumarin] |
